Results from patent US20140371305A1, “Mupirocin Antibiotic Composition” (PROFESSIONAL COMPOUNDING CENTERS OF AMERICA, priority 2013, published 2014).

Legend:
[1] = test system: Methicillin Resistant Staphylococcus aureus; assay: Minimum inhibitory concentration (MIC) test; format: cell-based; conditions: mupirocin combined with micronized poloxamer composition 202 (poloxamer 188 and poloxamer 407)
Procedure: (§1) “Minimum Inhibitory Concentration (MIC)” may refer to the lowest concentration of an antimicrobial that may inhibit the visible growth of a microorganism after overnight incubation.
(§2) Moreover, micronized poloxamer composition 202 may enhance mupirocin's properties by lowering the minimum inhibitory concentration (MIC) to about […]. The MIC was tested against microorganisms such as Pseudomonas aeruginosa, and Methicillin Resistant Staphylococcus aureus, among others.

Pseudomonas aeruginosa = assay: Minimum inhibitory concentration (MIC) test; format: cell-based; conditions: mupirocin combined with micronized poloxamer composition 202 (poloxamer 188 and poloxamer 407)
Procedure: as §1, §2

C/C(=C\C(=O)OCCCCCCCCC(=O)O)C[C@@H]1OC[C@H](C[C@@H]2O[C@H]2[C@@H](C)[C@H](C)O)[C@@H](O)[C@H]1O [mupirocin]
minimum inhibitory concentration (MIC) [1]: about 1.7 g | minimum inhibitory concentration (MIC) (Pseudomonas aeruginosa): about 1.7 g
